Test results published in patent US8986419B2, “Mixture for treating fertilizers” (SKW Stickstoffwerke Piesteritz GmbH, priority 2010, dated 2015).
In brackets after ≈: the same amount, converted by molar mass. Several values for one entry are separate records, joined by “and”; a condition that tells them apart may be missing. Equal values may be shown once.

Tests used:
[1] = Laboratory test on the volatility of 3-methylpyrazole, storage in open crystallising dishes at room temperature; assay type: physicochemical; conditions: open crystallising dish diameter 5 cm
[2] = Simulated open storage test of treated urea granules, TZ/3-MP content determined analytically; assay type: physicochemical; conditions: storage period 6 weeks, 9 kg in open-topped vessels, ambient temperature and humidity; listed as pure 3-methylpyrazole sprayed on
Procedure: The urea granules enclosed in the cement mixer according to Example 8 were stored in a quantity of 9 kg to simulate storage in a pile in open-topped cylindrical vessels (height 30 cm, diameter 30 cm) at ambient temperature and humidity. After a storage period of 2, 4 and 6 weeks average samples were taken and the nitrification inhibitor TZ/3-MP content was determined analytically.
Enclosed urea granules according to Example 9 were stored in the same way in parallel, and average samples taken from these were investigated analytically.

[3] = aqueous formulation; cited from earlier work

| SMILES | loss in % ([1]; storage time 1 day) | loss in % ([1]; storage time 2 days) | loss in % ([1]; storage time 3 days) | loss in % ([1]; storage time 6 days) | loss in % ([1]; storage time 12 days) | Active substance losses in relation to the starting value, MP (%) [2] | solubility [3] |
| --- | --- | --- | --- | --- | --- | --- | --- |
| Cc1cc[nH]n1 [Example 3-MP, 3-methylpyrazole] | 12% | 26% | 40% | 87% | 100% | 89 ^1% and 89% |  |
| c1nc[nH]n1 [TZ, 1,2,4-triazole] | 0% | 0% | 1% | 2% | 2% |  |  |
| N#CN=C(N)N [dicyandiamide, Dicyandiamide] |  |  |  |  |  |  | 32 mg/mL (≈ 381 mM) |
